Measurements published in paper PMC6943423, “Structure-Activity Study of an All-D Antimicrobial Octapeptide D2D” (Molecules, 2019).
Square brackets hold non-standard residues; d marks the D form. Peptide text beside a SMILES is read from it. d1Nal = N[C@H](Cc1cccc2ccccc12)C(=O)O; dNle = CCCC[C@@H](N)C(=O)O

Experiments:
[1] = Peptide self-assembly nanostructure in solution by SAXS; type: physicochemical; conditions: for nanostructure in solution (self-assembly, SAXS model): lab SAXS, 50 mM Tris buffer pH 7.4, 2.5–10 mg/mL, ambient temperature; on cross section of the nanotubes: values in Å
Experimental: SAXS experiments of D2D and the alanine-scan (compounds 1–8) were performed using a Bruker NANOSTAR equipped with a microfocus X-ray source (IμS Cu, InCoatec, Germany) and a VÅNTEC-2000 detector. Raw scattering data was calibrated to absolute intensity scale using water as a primary standard and radially averaged in order to obtain the 1D scattered intensity profile as a function of the scattering vector q (q = 4 π sin (θ/2)/λ), where θ is the scattering angle and λ is the X-ray wavelength of 1.54 Å. The samples were dissolved in 50 mM Tris buffer, pH 7.4 (10 mg/mL, 5 mg/mL and 2.5 mg/mL) and injected manually into a temperature-controlled quartz cell located in a vacuum chamber and measured for 180 min.
The scattering of the peptide D2D was analysed using a random polymer-like chain model:(1) Ichain(q)=ϕ·Vp·Δρ^2·Pchain(q) where ϕ is the volume fraction of the peptide, Vp is the volume of the polymer, Δρ is the excess scattering length density and Pchain(q) is the form factor of the free peptide chains given by the Debye expression for Gaussian chains:(2) gPchain(q)=2·exp[−(qRg)^2]−1+(qRg)^2/(qRg)^4 where Rg is the radius gyration of the peptide chains.
The scattering for compounds 2 and 7 was analysed using a rectangular sheet like model:(3) Isheet(q)=ϕ·Vp·Δρ^2·Np·Psheet(q)
Under the assumption that the length of the peptide sheets are much greater than the lateral dimension, i.e., c >> a, b, the form factor Psheet(q) is given by (4) Psheet(q)=Fc(q)1/2π∫02πAsheet(q, α)^2dα where the amplitude is given by (5) Asheet(q,α)=sin(qb cos(α)/2)/qb cos(α)/2· sin(qa sin(α)/2) /qa sin(α)/2) and (6) Fc(q)=(2 Si(qc)/(qc)−4 sin^2(qc/2)/(qc)^2 where Si(x)=∫0xt^−1sint dt .
The expression for the absolute scattering intensity, from this structure can be written as:(7) Inanotube(q)=ϕ·P·Vtot·Δρ^2·P(q)L·A(q)cs2·DW(q) where ϕ is the volume fraction of the peptide, P is the aggregation number given by P π(Ro2−Ri2)L/Vp where Vp is the volume of a peptide chain, Ro is the outer radius and Ri is the inner radius of the tubes, and L is the length. A(q)cs2 is given by:(8) A(q)cs2=Ro2A(q,Rc)−Rin2A(q,Ri)/(Ro2−Ri2) where A(q,x)=2J1(q·x)/(q·x) and J1(x) is the first order Bessel function.
The longitudinal form factor P(q)L is given by:(9) P(q)L=2 Si(QL)/QL −4 sin(sin^2(QL/2)/(QL)^2 where L is the length of the nanotubes and Si(x) is the Sine-function.
In addition, we introduced a slight distribution in the inner radius for possible shape fluctuations, and a Debye Waller factor, DW(q) = exp(−q^2 σ^2), describing possible surface roughness of the inner and outer wall.

human red blood cells = assay: Hemolytic activity; type: cell-based; conditions: red cells of human, 1 h, 150
Experimental: The percentage of hemolysis at 150 μM was determined for all compounds as previously described. Briefly, two-fold serial dilutions (2.35 to 150 μM) of compounds in PBS were mixed with a 0.5% v/v suspension of fresh human red blood cells (RBC) in the same buffer. After 1 h incubation at 37 °C, plates were centrifuged and aliquots of the supernatants were transferred to clear ELISA plates. Absorbance at 414 nm was determined and normalised with respect to a negative (PBS, 0%) and positive (melittin, 100%) control.

Structure (SMILES)	nanostructure in solution (self-assembly, SAXS model) [1]	%H (% Hemolysis at 150 µM) (human red blood cells) [%]	cross section of the nanotubes ([1]; SAXS nanotube model fit, 50 mM Tris pH 7.4) [Å]
CCCC[C@@H](NC(=O)[C@@H](CCCCN)NC(=O)[C@@H](Cc1cccc2ccccc12)NC(=O)[C@@H](CCCCN)NC(=O)[C@@H](Cc1ccccc1)NC(=O)[C@@H](Cc1cccc2ccccc12)NC(=O)[C@@H](CCCCN)NC(=O)[C@@H](C)N)C(N)=O [Compound 1, ak(1-nal)fk(1-nal)k(nle)-NH2] (H-[dA][dK][d1Nal][dF][dK][d1Nal][dK][dNle]-NH2)	random polymer-like chains	41	–
CCCC[C@@H](NC(=O)[C@@H](CCCCN)NC(=O)[C@@H](Cc1cccc2ccccc12)NC(=O)[C@@H](CCCCN)NC(=O)[C@@H](Cc1ccccc1)NC(=O)[C@@H](Cc1cccc2ccccc12)NC(=O)[C@@H](C)NC(=O)[C@H](N)CCCCN)C(N)=O [Compound 2, ka(1-nal)fk(1-nal)k(nle)-NH2] (H-[dK][dA][d1Nal][dF][dK][d1Nal][dK][dNle]-NH2)	larger filament like structures	59	14
CCCC[C@@H](NC(=O)[C@@H](CCCCN)NC(=O)[C@@H](Cc1cccc2ccccc12)NC(=O)[C@@H](CCCCN)NC(=O)[C@@H](Cc1ccccc1)NC(=O)[C@@H](C)NC(=O)[C@@H](CCCCN)NC(=O)[C@H](N)CCCCN)C(N)=O [Compound 3, kkafk(1-nal)k(nle)-NH2] (HELM PEPTIDE1{[dK].[dK].[dA].[dF].[dK].[O=C([C@@H](Cc1cccc2ccccc12)N[*:1])[*:2]].[dK].[CCCC[C@@H](N[*:1])C(=O)[*:2]].[am]}$$$$V2.0)	random polymer-like chains	2	–
CCCC[C@@H](NC(=O)[C@@H](CCCCN)NC(=O)[C@@H](Cc1cccc2ccccc12)NC(=O)[C@@H](CCCCN)NC(=O)[C@@H](C)NC(=O)[C@@H](Cc1cccc2ccccc12)NC(=O)[C@@H](CCCCN)NC(=O)[C@H](N)CCCCN)C(N)=O [Compound 4, kk(1-nal)ak(1-nal)k(nle)-NH2] (H-[dK][dK][d1Nal][dA][dK][d1Nal][dK][dNle]-NH2; N-terminus assumed)	random polymer-like chains	22	–
CCCC[C@@H](NC(=O)[C@@H](CCCCN)NC(=O)[C@@H](C)NC(=O)[C@@H](CCCCN)NC(=O)[C@@H](Cc1ccccc1)NC(=O)[C@@H](Cc1cccc2ccccc12)NC(=O)[C@@H](CCCCN)NC(=O)[C@H](N)CCCCN)C(N)=O [Compound 6, kk(1-nal)fkak(nle)-NH2] (HELM PEPTIDE1{[dK].[dK].[O=C([C@@H](Cc1cccc2ccccc12)N[*:1])[*:2]].[dF].[dK].[dA].[dK].[CCCC[C@@H](N[*:1])C(=O)[*:2]].[am]}$$$$V2.0; N-terminus assumed)	random polymer-like chains	10	–
CCCC[C@@H](NC(=O)[C@@H](C)NC(=O)[C@@H](Cc1cccc2ccccc12)NC(=O)[C@@H](CCCCN)NC(=O)[C@@H](Cc1ccccc1)NC(=O)[C@@H](Cc1cccc2ccccc12)NC(=O)[C@@H](CCCCN)NC(=O)[C@H](N)CCCCN)C(N)=O [Compound 7, kk(1-nal)fk(1-nal)a(nle)-NH2] (H-[dK][dK][d1Nal][dF][dK][d1Nal][dA][dNle]-NH2)	larger filament like structures	67	–
C[C@@H](NC(=O)[C@@H](CCCCN)NC(=O)[C@@H](Cc1cccc2ccccc12)NC(=O)[C@@H](CCCCN)NC(=O)[C@@H](Cc1ccccc1)NC(=O)[C@@H](Cc1cccc2ccccc12)NC(=O)[C@@H](CCCCN)NC(=O)[C@H](N)CCCCN)C(N)=O [Compound 8, kk(1-nal)fk(1-nal)ka-NH2] (HELM PEPTIDE1{[dK].[dK].[O=C([C@@H](Cc1cccc2ccccc12)N[*:1])[*:2]].[dF].[dK].[O=C([C@@H](Cc1cccc2ccccc12)N[*:1])[*:2]].[dK].[dA].[am]}$$$$V2.0; N-terminus assumed)	random polymer-like chains	5	–
NCCCC[C@@H](N)C(=O)N[C@H](CCCCN)C(=O)N[C@H](Cc1cccc2ccccc12)C(=O)N[C@H](Cc1ccccc1)C(=O)N[C@H](CCCCN)C(N)=O [Compound 32, kk(1-nal)fk-NH2] (HELM PEPTIDE1{[dK].[dK].[O=C([C@@H](Cc1cccc2ccccc12)N[*:1])[*:2]].[dF].[dK].[am]}$$$$V2.0; N-terminus assumed)	–	5	–
CCCC[C@@H](NC(=O)[C@@H](CCCCN)NC(=O)[C@@H](Cc1cccc2ccccc12)NC(=O)[C@@H](CCCCN)NC(=O)[C@@H](Cc1ccccc1)NC(=O)[C@@H](Cc1cccc2ccccc12)NC(=O)[C@@H](CCCCN)NC(=O)[C@H](N)CCCNC(=N)N)C(N)=O [Compound 33, rk(1-nal)fk(1-nal)k(nle)-NH2] (H-[dR][dK][d1Nal][dF][dK][d1Nal][dK][dNle]-NH2)	–	60	–
CCCC[C@@H](NC(=O)[C@@H](CCCCN)NC(=O)[C@@H](Cc1cccc2ccccc12)NC(=O)[C@@H](CCCCN)NC(=O)[C@@H](Cc1ccccc1)NC(=O)[C@@H](Cc1cccc2ccccc12)NC(=O)[C@@H](CCCNC(=N)N)NC(=O)[C@H](N)CCCCN)C(N)=O [Compound 34, kr(1-nal)fk(1-nal)k(nle)-NH2] (H-[dK][dR][d1Nal][dF][dK][d1Nal][dK][dNle]-NH2; N-terminus assumed)	–	35	–
CCCC[C@@H](NC(=O)[C@@H](CCCCN)NC(=O)[C@@H](Cc1cccc2ccccc12)NC(=O)[C@@H](CCCNC(=N)N)NC(=O)[C@@H](Cc1ccccc1)NC(=O)[C@@H](Cc1cccc2ccccc12)NC(=O)[C@@H](CCCCN)NC(=O)[C@H](N)CCCCN)C(N)=O [Compound 35, kk(1-nal)fr(1-nal)k(nle)-NH2] (H-[dK][dK][d1Nal][dF][dR][d1Nal][dK][dNle]-NH2; N-terminus assumed)	–	49	–
CCCC[C@@H](NC(=O)[C@@H](CCCNC(=N)N)NC(=O)[C@@H](Cc1cccc2ccccc12)NC(=O)[C@@H](CCCCN)NC(=O)[C@@H](Cc1ccccc1)NC(=O)[C@@H](Cc1cccc2ccccc12)NC(=O)[C@@H](CCCCN)NC(=O)[C@H](N)CCCCN)C(N)=O [Compound 36, kk(1-nal)fk(1-nal)r(nle)-NH2] (H-[dK][dK][d1Nal][dF][dK][d1Nal][dR][dNle]-NH2; N-terminus assumed)	–	51	–
